Each structure is given as a SMILES string.

Results on one molecule are retold here after patent publication US20060122153A1, “Antineoplastic ether lipid compounds with modifications at the sn-2 carbon” (priority 2003, published 2006).

In the series the test system is platelets in dog whole blood.

Procedure: Briefly, whole citrated blood is diluted 1:2 with sterile saline and placed in a warm chamber with a mini stir bar. An electronic probe, measuring electrical resistance, is inserted in the sample. The aggregometer is calibrated and the baseline is observed to detect any spontaneous aggregation. The test sample is added and allowed to run for at least 6 minutes. If the sample is an agonist the platelets will start to aggregate and stick to the electronic probe causing resistance across the electrodes to increase. This resistance, in ohms, is measured 6 minutes post addition of sample. The test samples are run at 25, 100, 200, 400 and 800 uM and compared to 100 uM L-ET-18-OCH3.
Collection of Blood Sample for in vitro Platelet Aggregation Testing: Venous blood is collected in 4.5 mL Vacutainer tubes containing 0.129 M sodium citrate using a 21G needle or larger. Blood is immediately mixed by gentle inversion 15-20 times and kept at room temperature. Dilution ratio is 1 to 9 (3.8% citrate solution:blood). One (2.0 mL) Vacutainer tube containing EDTA is also collected for platelet counts. Complete blood counts (CBC) are measured on the CDC Technologies Hemavet 1500 to ensure that the test subject's platelets are within normal range. Amy vials of hemolytic blood or blood containing any clots should be discarded. Platelet aggregation testing must be completed within 3 hours of blood collection. After this time the ability of platelets to aggregate decreases.
Dilutions were prepared in PBS or saline at 40× concentration. (25 uL test sample are added to 1000 uL diluted blood (1:40)).

Regarding `CCCCCCCCCCCCCCCCCCOCC(COP(=O)([O-])OCC[N+](C)(C)C)OC` [D-ET18OCH3, 1-O-octadecyl-2-O-methyl-glycerophosphocholine, reference compound], the Platelet aggregation result was “−” and the “platelet aggregation response (in words)” value was “doesn't elicit an aggregation response”.
